The values that follow come from ChEMBL document CHEMBL1157539, “Thousands of chemical starting points for antimalarial lead identification” (Nature, 2010).

The structures appear in SMILES notation.

The subject of this assay is Plasmodium falciparum. Description: GSK_TCMDC: Inhibition of Plasmodium falciparum 3D7 in whole erythrocytes, using parasite LDH activity as an index of growth. In kind it is functional, organism-based. Conditions: Plasmodium falciparum, 3D7.
For `c1ccc(C(OCCC2CCN(Cc3cccnc3)CC2)c2ccccc2)cc1`, the XC50 was 817 nM.
In the case of `CN(C)Cc1cccc(-c2ccc(Nc3nccc(NCC(O)c4ccccc4)n3)cc2)c1` (stereo not given) it was 136 nM; in that of `Clc1ccc(-c2[nH]c3ccccc3c2CN2CCC(N3CCCCC3)CC2)cc1`, 1060 nM.
In turn, `CN1CCN(c2ccc(Nc3nccc(-c4c(-c5cccc(NC(=O)c6c(F)cccc6F)c5)nn5ccccc45)n3)cc2)CC1` gave an XC50 of 112 nM.
In the case of `Cc1cc(N[C@@H](CC(C)C)C(=O)NCc2cccc(F)c2)nc(NCCc2ccccc2)n1` it was 1080 nM; in that of `COc1ccc(Nc2cc(C)nc(NCc3ccc4c(c3)OCO4)n2)cc1`, 766 nM; in that of `CCCN(CCC)S(=O)(=O)c1ccc(C(=O)N2CCC(C(=O)OCC)CC2)cc1`, 803 nM.
In the case of `O=C(Nc1ccc2c(c1)CN(Cc1ccc(N3CCCC3)o1)CCC2)c1cncs1` it was 1570 nM.
In the case of `O=C(O)c1ccc(-c2cnc3ccc(NC4CCC(O)CC4)nn23)cc1` (stereo not given) it was 995 nM.
The compound `CC1(C)NC(N)=NC(=N)N1OCCCNC(=O)c1ccc([N+](=O)[O-])cc1` showed an XC50 of 3.2 nM.
In the case of `CC(=O)Nc1ncc(C(=O)Nc2cccc(-c3ccc(-c4nc5cc(F)ccc5[nH]4)cc3)c2)s1` it was 622 nM; in that of `Cc1cccc2nc(-c3cccc(-c4ccc(NC(=O)NCc5cccc(F)c5)cc4)c3)[nH]c12`, 236 nM.
In the case of `Cc1cnc(Nc2ccccc2)nc1N[C@@H](CCCN)C(=O)Nc1ccccc1` it was 807 nM; in that of `COc1cc(Nc2nccc(N3CCC(NC(=O)C4COc5ccccc5O4)C3)n2)cc(OC)c1OC` (stereo not given), 924 nM.
Regarding `O=C(Nc1ccc(Oc2ccccc2)cc1)N(Cc1ccc(-c2cccc(CN3CCNCC3)c2)cc1)C1CCN(Cc2ccccc2)CC1`, the XC50 was determined as 881 nM.
In the case of `COc1ccccc1C1CCN(C2CCC(NC(=O)/C=C/c3ccc(C(F)(F)F)cc3)CC2)CC1` (stereo not given) it was 1160 nM; in that of `CC1CCC2(CC1)NC(N)=NC(=N)N2OCCCCCCCCO` (stereo not given), 147 nM.
Compound `CCOc1cc(C(=O)Nc2ccccc2N2CCN(S(C)(=O)=O)CC2)cc(OCC)c1OCC` showed an XC50 of 653 nM.
In the case of `Cn1cncc1C(=O)Nc1ccc(-c2cccc(-c3nc4cc(C(F)(F)F)ccc4[nH]3)c2)cc1` it was 858 nM.
In the case of `CO/C(=C\C=C\c1cc2cc(Cl)c(Cl)cc2[nH]1)C(=O)Nc1ccc(NCCN(C)C)nc1` it was 765 nM; in that of `COc1ccc2nccc([C@@H](O)CN3CCC(NC(=O)/C=C/c4cc([N+](=O)[O-])ccc4OC)CC3)c2c1`, 258 nM.
In the case of `CCc1cn2c3c(cc(C(=O)N[C@@H](Cc4ccccc4)[C@H](O)CNCc4ccccc4C)cc13)N(C)S(=O)(=O)CC2` it was 271 nM; in that of `N#Cc1ccc(-c2ccc(OCC(O)CN3CCCN(C(=O)C(c4ccc5c(c4)OCO5)N4CCN(C/C=C/c5ccccc5)CC4)CC3)cc2)cc1` (stereo not given), 654 nM.
Turning to `C[C@H](Cc1ccc(S(=O)(=O)c2ccc(C[C@@H](C)NC[C@H](O)c3cccc(Cl)c3)cc2)cc1)NC[C@H](O)c1cccc(Cl)c1`, the XC50 stood at 258 nM.
In the case of `Cc1ccc(NC(=O)Nc2ccc(Cl)cc2)cc1-c1cccc(C(=O)Nc2ccc(F)cc2)c1` it was 735 nM; in that of `CC(=O)NCCNc1cc(N2CCc3ncnc(Nc4ccc(OCc5c(F)cccc5F)c(Cl)c4)c3C2)ncn1`, 160 nM; in that of `CCOC(=O)c1cc(C(=O)OC)c2ccccn12`, 223 nM.
In the case of `CCn1c(Sc2ccc(C#N)c([N+](=O)[O-])c2)nnc1-c1ccc(Cl)cc1` it was 552 nM; in that of `CS(=O)(=O)N(c1cccc(F)c1)c1cc(C(=O)N[C@@H](Cc2ccccc2)[C@H](O)CNCc2cccc(C(F)(F)F)c2)cc(N2CCCC2=O)c1`, 910 nM.
In the case of `c1cn(-c2ccc(CNc3nccc(Nc4ccc(OCCN5CCOCC5)cc4)n3)cc2)cn1` it was 878 nM; in that of `Cc1cccc2nc(-c3cccc(-c4cccc(NC(=O)Cc5c[nH]cn5)c4)c3)[nH]c12`, 675 nM; in that of `COc1ccc(CN2CCC(NCc3cccc([N+](=O)[O-])c3)CC2)cc1`, 910 nM.
Consider `CN(C)S(=O)(=O)c1ccc(N2CCN(CCC3(c4cccc(F)c4)CCN(C(=O)C(C)(C)C)CC3)CC2)c2nonc12`, for which the XC50 worked out at 697 nM.
In the case of `Fc1cc(CN2CCCC2)ccc1OCCCN1CCN(c2cccc(Cl)c2Cl)CC1` it was 1040 nM; in that of `CC(C)c1ccc(NC(=O)NCCCC2CCCN(CCCCCNC(=O)/C=C/c3ccc(Cl)c(Cl)c3)C2)cc1` (stereo not given), 957 nM; in that of `CN1CCC(C(=O)Nc2cccc(-c3cccc(-c4nc5cc(F)ccc5[nH]4)c3)c2)CC1`, 695 nM.
In the case of `Cc1ccc2[nH]c(-c3ccccc3N)cc2c1` it was 923 nM; in that of `Cc1cccc(CN2CCCN(Cc3ccc(C(=O)Nc4ccc(Cl)cc4)cc3)CC2)c1`, 596 nM; in that of `COc1ccc(NC(=O)Nc2cccc(-c3cccc(-c4nc5ccccc5[nH]4)c3)c2)cc1`, 309 nM.
In the case of `Cn1ccnc1-c1nc2ccccn2c1NCC(=O)Nc1ccccc1N1CCCCC1` it was 980 nM.
Consider `COc1c(CN2CCOCC2)cccc1-c1cc2c(-c3ccc(C(=O)O)c(C(C)C)c3)ccnc2[nH]1`, for which the XC50 stood at 742 nM.
Compound `c1cc(-c2ccc(CNCCc3ccncc3)cc2)cc(-c2nc3ccccc3[nH]2)c1` returned an XC50 of 139 nM.
`O=C(Nc1ccc(S(=O)(=O)N2CCCCC2)cc1)c1cc(-c2ccccc2O)n[nH]1` showed an XC50 of 846 nM.
In the case of `O=C(NCC1CC1)C1CCN(C(c2ccccc2)c2cc(F)cc(F)c2)CC1` (stereo not given) it was 380 nM; in that of `Cc1cccc2nc(-c3ccc(-c4cccc(NC(=O)C(C)CN5CCN(C)CC5)c4)s3)[nH]c12` (stereo not given), 748 nM; in that of `O=C(NCCOc1ccccc1)[C@H](Cc1ccccc1)Nc1ccnc(NCC2CCCCC2)n1`, 1200 nM.
In the case of `CCC1(C)N=C(N)N=C(N)N1c1ccc(Cl)cc1` (stereo not given) it was 159 nM; in that of `OC(CNc1ccnc(Nc2cccc(Cl)c2)n1)c1ccccc1C(F)(F)F` (stereo not given), 902 nM; in that of `CC(CN(C)C)Oc1ccc2nc(-c3cccc(OCc4ccccc4)c3)[nH]c2c1C#N` (stereo not given), 407 nM.
In the case of `Fc1cc(Cl)ccc1Nc1ccnc2cc(-c3ccc(CN4CCCCC4)o3)ccc12` it was 337 nM.
Compound `O=C(NCCc1ccccc1F)c1ccc(N2CCN(c3ccncc3)CC2)cn1` came in with an XC50 of 1080 nM.
In the case of `O=C(Cc1cccc2ccccc12)N1CCc2cc3nccc(N4CCN5CCC[C@H]5C4)c3cc21` it was 777 nM; in that of `N#CC(c1ccc(Br)cc1)c1ccc2c(C(F)(F)F)cc(C(F)(F)F)nc2n1` (stereo not given), 440 nM.
In the case of `CCC[C@@H]([C@@H](CC1CCCCC1)C(=O)N[C@@H](CCCCNS(C)(=O)=O)C(=O)Nc1nccs1)N(O)C=O` it was 81.1 nM; in that of `CC1(C)NC(N)=NC(=N)N1OCc1nc(N)nc(Nc2ccccc2)n1`, 274 nM.
In the case of `COc1cc(CNCCCCCCNCc2cc(OC)cc3ccccc23)c2ccccc2c1` it was 590 nM; in that of `O=C(c1cccc(Br)c1)N1CCN(c2ccc([N+](=O)[O-])c(NC3CC3)c2)CC1`, 936 nM; in that of `O=C(Nc1ccc(Cn2ncc(N3CCCNCC3)c(Cl)c2=O)cc1)Nc1ccc(F)cc1[N+](=O)[O-]`, 1100 nM.
Compound `COc1ccc2nccc([C@@H](O)CN3CCC(NCc4cc5ccccc5nn4)CC3)c2c1` returned an XC50 of 1200 nM.
In the case of `COc1ccc(-c2ccc(NC(=O)c3cccc(Cl)c3)c(F)c2)cc1CNC(C)C` it was 895 nM.
